Measured values as given in patent publication US8012979B2, “Compounds and their uses 707” (AstraZeneca AB, priority 2007, dated 2011).

Molecular target: T1, human active recombinant p38α-6His tagged (Homo sapiens, UniProt Q16539)
T1 construct: 6His
Assay: p38 Alpha Enzyme Assay (AlphaScreen, biotinylated-ATF2 substrate)
Format: biochemical
Settings: pre-incubated 4 hours at 37° C., reaction initiated with ATP; 0.5 nM enzyme; read-out: p38 pIC50 (converted)
Description: The ability of the compounds of formula (I) to inhibit p38 kinase may be determined using the following biological assay:
Enzyme assays were performed in polypropylene 96 well plates. The following solutions were added to each well; 10 μL of compound dilutions in assay buffer (20 mM HEPES pH 7.4, containing 20 mM magnesium acetate, 0.005% (w/v) Tween-20, 10 mM DTT) containing 1% (v/v) DMSO or assay buffer containing 1% (v/v) DMSO alone, 70 μL of assay buffer containing 36 nM substrate (biotinylated-ATF2) and 10 μL of an appropriate dilution of human active recombinant p38α-6His tagged. Depending on batch of p38, an appropriate dilution was typically a 5 nM solution to give a final enzyme concentration of 0.5 nM. At this stage, background control wells also received 50 μL of AlphaScreen quench buffer (10 mM HEPES pH 7.4 containing 100 mM EDTA, 0.2% (w/v) bovine serum albumin). The plate was covered, pre-incubated for 4 hours at 37° C. and the enzyme reaction initiated by addition of 10 μL 1 mM ATP. After incubation for a further 45 minutes at 37° C., the reaction was stopped by addition of 50 μL quench reagent and 50 μL of the quenched reaction mixture transferred to an opaque, white 96-well plate. Detection reagent, 25 μL of 10 mM HEPES pH 7.4 containing 100 mM EDTA, 0.2% (w/v) bovine serum albumin, 0.3 nM anti phosphoATF2 antibody and 25 μg/mL of ‘AlphaScreen protein A acceptor and donor beads’ (PerkinElmer Inc.), was added to all wells in a darkened room, the plate sealed and left in the dark for at least 5 hours before AlphaScreen readings were taken using a Perkin Elmer EnVision reader. Total, uninhibited activity was determined from assays performed in each assay plate. The mean control in the absence of p38 activity was subtracted from each well. Data were expressed as percent inhibition of total activity using equation 1. Percent Inhibition=100*(1−Test/Control) Eq.1 Where . . . . • Test=p38 kinase activity in the presence of compound • Control=p38 kinase activity in the absence of compound.
pIC50 is defined as the logarithm of the reciprocal of the concentration of compound required for 50% reduction in total p38 kinase activity.

T1 sequence (Q16539 whole entry): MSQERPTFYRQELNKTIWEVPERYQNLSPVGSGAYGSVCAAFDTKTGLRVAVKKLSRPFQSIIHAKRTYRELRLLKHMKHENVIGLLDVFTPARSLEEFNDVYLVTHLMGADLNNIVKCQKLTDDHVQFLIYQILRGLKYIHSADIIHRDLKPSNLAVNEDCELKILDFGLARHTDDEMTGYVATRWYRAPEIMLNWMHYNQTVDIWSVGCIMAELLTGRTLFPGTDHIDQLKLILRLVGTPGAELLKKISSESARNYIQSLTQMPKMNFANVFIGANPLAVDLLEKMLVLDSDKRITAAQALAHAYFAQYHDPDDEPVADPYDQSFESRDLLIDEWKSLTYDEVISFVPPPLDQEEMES

Row | IC50 [nM] | SMILES
1 | 10 | Cc1ccc(C(=O)NC2CC2)cc1-c1ccc2c(=O)n(Cc3ccccc3)cc(CN3CCCC3)c2c1 [Example 61, 3-(2-Benzyl-1-oxo-4-(pyrrolidin-1-ylmethyl)-1,2-dihydroisoquinolin-6-yl)-N-cyclopropyl-4-methylbenzamide]
2 | 0.158 | Cc1c(F)cc(C(=O)NC2CC2)cc1-c1ccc2c(=O)n(CC3CC3)cc(CN3CCN(CCO)CC3)c2c1 [Example 90, N-Cyclopropyl-3-(2-(cyclopropylmethyl)-4-((4-(2-hydroxyethyl)piperazin-1-yl)methyl)-1-oxo-1,2-dihydroisoquinolin-6-yl)-5-fluoro-4-methylbenzamide]
3 | 0.158 | Cc1ccc(C(=O)NC2CC2)cc1-c1ccc2c(=O)n(CC3CC3)cc(CN3CCCNCC3)c2c1 [Example 70, N-Cyclopropyl-3-(2-cyclopropylmethyl-4-[1,4]diazepan-1-ylmethyl-1-oxo-1,2-dihydro-isoquinolin-6-yl)-4-methyl-benzamide]
4 | 0.0794 | Cc1c(F)cc(C(=O)NC2CC2)cc1-c1ccc2c(=O)n(CC3CC3)cc(CN3CCC(N)CC3)c2c1 [Example 83, 3-(4-((4-Aminopiperidin-1-yl)methyl)-2-(cyclopropylmethyl)-1-oxo-1,2-dihydroisoquinolin-6-yl)-N-cyclopropyl-5-fluoro-4-methylbenzamide]
5 | 3.98 | Cc1ccc(C(=O)NC2CC2)cc1-c1ccc2c(=O)n(C(C)c3ccccc3)ccc2c1 (centres unmarked) [Example 121, N-Cyclopropyl-4-methyl-3-(1-oxo-2-(1-phenylethyl)-1,2-dihydroisoquinolin-6-yl)benzamide]
6 | 0.1 | Cc1c(F)cc(C(=O)NC2CC2)cc1-c1ccc2c(=O)n(CC3CC3)cc(CN3C[C@@H]4C[C@H]3CN4)c2c1 [Example 111, 3-(4-((1S,4S)-2,5-Diazabicyclo[2.2.1]heptan-2-ylmethyl)-2-(cyclopropylmethyl)-1-oxo-1,2-dihydroisoquinolin-6-yl)-N-cyclopropyl-5-fluoro-4-methylbenzamide]
7 | 0.0501 | Cc1c(F)cc(C(=O)NC2CC2)cc1-c1ccc2c(=O)n(CC3CC3)cc(CN3CCN[C@H](CO)C3)c2c1 [Example 102, (S)—N-Cyclopropyl-3-(2-(cyclopropylmethyl)-4-((3-(hydroxymethyl)piperazin-1-yl)methyl)-1-oxo-1,2-dihydroisoquinolin-6-yl)-5-fluoro-4-methylbenzamide]
8 | 2 | Cc1ccc(C(=O)NC2CC2)cc1-c1ccc2c(=O)n(Cc3cccc(OCCCN(C)C)c3)cc(C)c2c1 [Example 93, N-Cyclopropyl-3-(2-(3-(3-(dimethylamino)propoxy)benzyl)-4-methyl-1-oxo-1,2-dihydroisoquinolin-6-yl)-4-methylbenzamide]

Further lines, the compound ahead of its results:

Row | SMILES | IC50 [nM]
9 | Cc1ccc(C(=O)NC2CC2)cc1-c1ccc2c(=O)n(Cc3ccc(CN4CCN(C)CC4)cc3)ccc2c1 [Example 26, N-Cyclopropyl-4-methyl-3-(2-(4-((4-methylpiperazin-1-yl)methyl)benzyl)-1-oxo-1,2-dihydroisoquinolin-6-yl)benzamide] | 3.16
10 | Cc1ccc(C(=O)NC2CC2)cc1-c1ccc2c(=O)n(Cc3ccc(CNC(C)(C)C)cc3)ccc2c1 [Example 28, 3-(2-(4-((Tert-butylamino)methyl)benzyl)-1-oxo-1,2-dihydroisoquinolin-6-yl)-N-cyclopropyl-4-methylbenzamide] | 1
11 | CNCCOc1ccc(Cn2ccc3cc(-c4cc(C(=O)NC5CC5)ccc4C)ccc3c2=O)cc1 [Example 36, N-Cyclopropyl-4-methyl-3-(2-(4-(2-(methylamino)ethoxy)benzyl)-1-oxo-1,2-dihydroisoquinolin-6-yl)benzamide] | 0.398
12 | Cc1ccc(C(=O)NC2CC2)cc1-c1ccc2c(=O)n(CC3CC3)cc(C(=O)NCCN(C)C)c2c1 [Example 40, 6-(5-(Cyclopropylcarbamoyl)-2-methylphenyl)-2-(cyclopropylmethyl)-N-(2-(dimethylamino)ethyl)-1-oxo-1,2-dihydroisoquinoline-4-carboxamide] | 3.98
13 | Cc1ccc(C(=O)NC2CC2)cc1-c1ccc2c(=O)n(Cc3ccc(C(=O)N(C)CCCN(C)C)cc3)ccc2c1 [Example 21, N-Cyclopropyl-3-(2-(4-((3-(dimethylamino)propyl)(methyl)carbamoyl)benzyl)-1-oxo-1,2-dihydroisoquinolin-6-yl)-4-methylbenzamide] | 3.16
14 | CCNC(=O)c1ccc(C)c(-c2ccc3c(=O)n(Cc4ccccc4)ccc3c2)c1 [Example 2, 3-(2-Benzyl-1-oxo-1,2-dihydro-isoquinolin-6-yl)-N-ethyl-4-methyl-benzamide] | 7.94
15 | Cc1ccc(C(=O)NC2CC2)cc1-c1ccc2c(=O)n(Cc3ccc(CN(C)C(C)(C)C)cc3)ccc2c1 [Example 27, 3-(2-(4-((Tert-butyl(methyl)amino)methyl)benzyl)-1-oxo-1,2-dihydroisoquinolin-6-yl)-N-cyclopropyl-4-methylbenzamide] | 1
16 | Cc1ccc(C(=O)NC2CC2)cc1-c1ccc2c(=O)n(Cc3ccc(C(=O)NCCCN4CCCC4)cc3)ccc2c1 [Example 24, N-Cyclopropyl-4-methyl-3-(1-oxo-2-(4-(3-(pyrrolidin-1-yl)propylcarbamoyl)benzyl)-1,2-dihydroisoquinolin-6-yl)benzamide] | 0.631
17 | Cc1ccc(C(=O)NC2CC2)cc1-c1ccc2c(=O)n(Cc3ccncc3)cc(C(=O)N3CCC(N)CC3)c2c1 [Example 58, 3-(4-(4-Aminopiperidine-1-carbonyl)-1-oxo-2-(pyridin-4-ylmethyl)-1,2-dihydroisoquinolin-6-yl)-N-cyclopropyl-4-methylbenzamide] | 2
18 | Cc1ccc(C(=O)NC2CC2)cc1-c1ccc2c(=O)n(Cc3ccc(OCCN(C)C)cc3)ccc2c1 [Example 32, N-Cyclopropyl-3-(2-(4-(2-(dimethylamino)ethoxy)benzyl)-1-oxo-1,2-dihydroisoquinolin-6-yl)-4-methylbenzamide] | 0.501
19 | Cc1ccc(C(=O)NC2CC2)cc1-c1ccc2c(=O)n(Cc3ccc(N4CCN(C)CC4)cc3)ccc2c1 [Example 4, N-Cyclopropyl-4-methyl-3{2-[4-(4-methyl-piperazin-1-yl)-benzyl]-1-oxo-1,2-dihydro-isoquinolin-6-yl}-benzamide] | 1.26
20 | Cc1ccc(C(=O)NC2CC2)cc1-c1ccc2c(=O)n(CC3CC3)cc(C(=O)N3CCC(N)CC3)c2c1 [Example 42, 3-(4-(4-Aminopiperidine-1-carbonyl)-2-(cyclopropylmethyl)-1-oxo-1,2-dihydroisoquinolin-6-yl)-N-cyclopropyl-4-methylbenzamide] | 1.26
21 | Cc1ccc(C(=O)NC2CC2)cc1-c1ccc2c(=O)n(Cc3ccccc3CN(C)C)ccc2c1 [Example 16, N-Cyclopropyl-3-[2-(2-dimethylaminomethyl-benzyl)-1-oxo-1,2-dihydro-isoquinolin-6-yl]-4-methyl-benzamide] | 50.1
22 | Cc1ccc(C(=O)NC2CC2)cc1-c1ccc2c(=O)n(Cc3ccc(CN(C)C)cc3)ccc2c1 [Example 14, N-Cyclopropyl-3-[2-(4-dimethylaminomethyl-benzyl)-1-oxo-1,2-dihydro-isoquinolin-6-yl]-4-methyl-benzamide] | 2.51
23 | Cc1ccc(C(=O)NC2CC2)cc1-c1ccc2c(=O)n(Cc3ccccc3)cc(C(=O)N3CC[C@@H](N)C3)c2c1 [Example 53, (R)-3-(4-(3-Aminopyrrolidine-1-carbonyl)-2-benzyl-1-oxo-1,2-dihydroisoquinolin-6-yl)-N-cyclopropyl-4-methylbenzamide] | 2
24 | Cc1ccc(C(=O)NC2CC2)cc1-c1ccc2c(=O)n(Cc3ccccc3)cc(C(=O)NCCCN(C)C)c2c1 [Example 51, 2-Benzyl-6-{5-[(cyclopropylamino)carbonyl]-2-methylphenyl}-N-[3-(dimethylamino)propyl]-1-oxo-1,2-dihydroisoquinoline-4-carboxamide] | 2
25 | Cc1ccc(C(=O)NC2CC2)cc1-c1ccc2c(=O)n(Cc3cccc(OCCN4CCCC4)c3)ccc2c1 [Example 33, N-Cyclopropyl-4-methyl-3-{1-oxo-2-[3-(2-pyrrolidin-1-ylethoxy)benzyl]-1,2-dihydroisoquinolin-6-yl}benzamide] | 2
26 | Cc1ccc(C(=O)NC2CC2)cc1-c1ccc2c(=O)n(Cc3ccncc3)cc(C(=O)N(C)C3CCN(C)CC3)c2c1 [Example 55, 6-(5-(Cyclopropylcarbamoyl)-2-methylphenyl)-N-methyl-N-(1-methylpiperidin-4-yl)-1-oxo-2-(pyridin-4-ylmethyl)-1,2-dihydroisoquinoline-4-carboxamide] | 31.6
